Measurements reported in PubChem BioAssay (NCI).
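Method: 48-hour compound exposure of cells in 96-well plates, five concentrations, linear interpolation of endpoints. TGI: concentration producing complete growth inhibition.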

Legend:
Assay in all cases: NCI tumour cell line growth inhibition, 48 h
NCI-H460 lung = system: NCI-H460 lung
RXF-631 renal = system: RXF-631 renal
NCI-H522 lung = system: NCI-H522 lung
M19-MEL melanoma = system: M19-MEL melanoma
SK-MEL-28 melanoma = system: SK-MEL-28 melanoma
RPMI-8226 leukemia = system: RPMI-8226 leukemia
OVCAR-8 ovarian = system: OVCAR-8 ovarian
HCT-15 colon = system: HCT-15 colon
HOP-18 NSCLC = system: HOP-18 NSCLC
HL-60(TB) leukemia = system: HL-60(TB) leukemia
MCF7 breast = system: MCF7 breast
SK-OV-3 ovarian = system: SK-OV-3 ovarian
SK-MEL-5 melanoma = system: SK-MEL-5 melanoma
XF 498 CNS = system: XF 498 CNS
K-562 leukemia = system: K-562 leukemia
DMS 273 small cell lung = system: DMS 273 small cell lung
CAKI-1 renal = system: CAKI-1 renal
LOX IMVI melanoma = system: LOX IMVI melanoma
SNB-75 CNS = system: SNB-75 CNS
P388/ADR leukemia = system: P388/ADR leukemia
UACC-257 melanoma = system: UACC-257 melanoma
DMS 114 small cell lung = system: DMS 114 small cell lung
DLD-1 colon = system: DLD-1 colon
P388 leukemia = system: P388 leukemia
MDA-MB-231 breast = system: MDA-MB-231 breast
HT29 colon = system: HT29 colon
CCRF-CEM leukemia = system: CCRF-CEM leukemia
KM12 colon = system: KM12 colon
SK-MEL-2 melanoma = system: SK-MEL-2 melanoma
SW-620 colon = system: SW-620 colon
IGROV1 ovarian = system: IGROV1 ovarian
U251 CNS = system: U251 CNS
COLO 205 colon = system: COLO 205 colon
MALME-3M melanoma = system: MALME-3M melanoma
NCI-H226 lung = system: NCI-H226 lung
BT-549 breast = system: BT-549 breast
786-0 renal = system: 786-0 renal
HCT-116 colon = system: HCT-116 colon
SNB-78 CNS = system: SNB-78 CNS
UACC-62 melanoma = system: UACC-62 melanoma
KM20L2 colon = system: KM20L2 colon
OVCAR-5 ovarian = system: OVCAR-5 ovarian
EKVX NSCLC = system: EKVX NSCLC
SN12K1 renal = system: SN12K1 renal
RXF 393 renal = system: RXF 393 renal
DU-145 prostate = system: DU-145 prostate
HOP-62 NSCLC = system: HOP-62 NSCLC
SF-539 CNS = system: SF-539 CNS
SN12C renal = system: SN12C renal
HOP-92 NSCLC = system: HOP-92 NSCLC
NCI-H23 lung = system: NCI-H23 lung
SF-295 CNS = system: SF-295 CNS
TK-10 renal = system: TK-10 renal
LXFL 529 NSCLC = system: LXFL 529 NSCLC
OVCAR-4 ovarian = system: OVCAR-4 ovarian
HCC-2998 colon = system: HCC-2998 colon
A498 renal = system: A498 renal
M14 melanoma = system: M14 melanoma
SNB-19 CNS = system: SNB-19 CNS
A549 NSCLC = system: A549 NSCLC
MOLT-4 leukemia = system: MOLT-4 leukemia
NCI/ADR-RES ovarian = system: NCI/ADR-RES ovarian
OVCAR-3 ovarian = system: OVCAR-3 ovarian
SF-268 CNS = system: SF-268 CNS
UO-31 renal = system: UO-31 renal
PC-3 prostate = system: PC-3 prostate

Q: For COc1cc(C2c3cc4c(cc3[C@@H](Nc3ccc5c(c3)OCCO5)C3COC(=O)[C@H]23)OCO4)cc(OC)c1O (stereo partly specified), which TGI (NCI-H460 lung) is on record?
A: The TGI was 2.23 µM.

Q: And the TGI (RXF-631 renal)?
A: The TGI was 3.51 µM.

Q: What about the TGI (NCI-H522 lung) of the same compound?
A: Its TGI is 5.43 µM.

Q: What about the TGI (M19-MEL melanoma) of the same compound?
A: Its TGI is > 35.9 µM.

Q: And the TGI (SK-MEL-28 melanoma)?
A: The TGI was > 47.6 µM.

Q: What about the TGI (RPMI-8226 leukemia) of the same compound?
A: Its TGI is 8.42 µM.

Q: What about the TGI (OVCAR-8 ovarian) of the same compound?
A: The TGI was 25.6 µM.

Q: And the TGI (HCT-15 colon)?
A: The TGI was 7.23 µM.

Q: And the TGI (HOP-18 NSCLC)?
A: The TGI was > 100 µM.

Q: What about the TGI (HL-60(TB) leukemia) of the same compound?
A: Its TGI is 0.241 µM.

Q: What about the TGI (MCF7 breast) of the same compound?
A: Its TGI is > 100 µM.

Q: And the TGI (SK-OV-3 ovarian)?
A: The TGI was 8.7 µM.

Q: And the TGI (SK-MEL-5 melanoma)?
A: Its TGI is 1.75 µM.

Q: And the TGI (XF 498 CNS)?
A: The TGI was 5.89 µM.

Q: And the TGI (K-562 leukemia)?
A: The TGI was 16.4 µM.

Q: What about the TGI (DMS 273 small cell lung) of the same compound?
A: The TGI was 1.87 µM.

Q: And the TGI (CAKI-1 renal)?
A: Its TGI is 2.42 µM.

Q: What about the TGI (LOX IMVI melanoma) of the same compound?
A: Its TGI is 22.4 µM.

Q: And the TGI (SNB-75 CNS)?
A: The TGI was 5.59 µM.

Q: And the TGI (P388/ADR leukemia)?
A: The TGI was 1.25 µM.

Q: What about the TGI (UACC-257 melanoma) of the same compound?
A: Its TGI is > 32.3 µM.

Q: And the TGI (DMS 114 small cell lung)?
A: The TGI was 3.42 µM.

Q: And the TGI (DLD-1 colon)?
A: Its TGI is 5.17 µM.

Q: And the TGI (P388 leukemia)?
A: The TGI was 1.26 µM.

Q: What about the TGI (MDA-MB-231 breast) of the same compound?
A: Its TGI is > 100 µM.

Q: What about the TGI (HT29 colon) of the same compound?
A: Its TGI is 5.96 µM.

Q: What about the TGI (CCRF-CEM leukemia) of the same compound?
A: Its TGI is 2.28 µM.

Q: And the TGI (KM12 colon)?
A: The TGI was 10.9 µM.

Q: And the TGI (SK-MEL-2 melanoma)?
A: Its TGI is 12 µM.

Q: And the TGI (SW-620 colon)?
A: Its TGI is > 79.1 µM.

Q: What about the TGI (IGROV1 ovarian) of the same compound?
A: The TGI was 16.6 µM.

Q: And the TGI (U251 CNS)?
A: The TGI was 8.26 µM.

Q: And the TGI (COLO 205 colon)?
A: Its TGI is 4.43 µM.

Q: What about the TGI (MALME-3M melanoma) of the same compound?
A: The TGI was 26.4 µM.

Q: What about the TGI (NCI-H226 lung) of the same compound?
A: Its TGI is 1.94 µM.

Q: What about the TGI (BT-549 breast) of the same compound?
A: Its TGI is 16.4 µM.

Q: And the TGI (786-0 renal)?
A: The TGI was 3.11 µM.

Q: And the TGI (HCT-116 colon)?
A: The TGI was 8 µM.

Q: And the TGI (SNB-78 CNS)?
A: The TGI was > 34.2 µM.

Q: What about the TGI (UACC-62 melanoma) of the same compound?
A: Its TGI is 7.19 µM.

Q: And the TGI (KM20L2 colon)?
A: The TGI was 9.05 µM.

Q: And the TGI (OVCAR-5 ovarian)?
A: The TGI was 16.6 µM.

Q: What about the TGI (EKVX NSCLC) of the same compound?
A: The TGI was 17 µM.

Q: And the TGI (SN12K1 renal)?
A: The TGI was 9.19 µM.

Q: What about the TGI (RXF 393 renal) of the same compound?
A: Its TGI is 4.64 µM.

Q: And the TGI (DU-145 prostate)?
A: Its TGI is > 100 µM.

Q: What about the TGI (HOP-62 NSCLC) of the same compound?
A: Its TGI is 1.31 µM.

Q: What about the TGI (SF-539 CNS) of the same compound?
A: Its TGI is 5.07 µM.

Q: What about the TGI (SN12C renal) of the same compound?
A: Its TGI is 10.2 µM.

Q: What about the TGI (HOP-92 NSCLC) of the same compound?
A: The TGI was 4.64 µM.

Q: And the TGI (NCI-H23 lung)?
A: The TGI was 2.79 µM.

Q: And the TGI (SF-295 CNS)?
A: Its TGI is 4.25 µM.

Q: And the TGI (TK-10 renal)?
A: The TGI was 11.6 µM.

Q: What about the TGI (LXFL 529 NSCLC) of the same compound?
A: Its TGI is > 100 µM.

Q: What about the TGI (OVCAR-4 ovarian) of the same compound?
A: The TGI was 29.3 µM.

Q: And the TGI (HCC-2998 colon)?
A: The TGI was 3.65 µM.

Q: And the TGI (A498 renal)?
A: Its TGI is 1.42 µM.

Q: What about the TGI (M14 melanoma) of the same compound?
A: Its TGI is 5.08 µM.

Q: What about the TGI (SNB-19 CNS) of the same compound?
A: The TGI was 66.6 µM.

Q: What about the TGI (A549 NSCLC) of the same compound?
A: The TGI was 7.15 µM.

Q: What about the TGI (MOLT-4 leukemia) of the same compound?
A: Its TGI is 1.02 µM.

Q: What about the TGI (NCI/ADR-RES ovarian) of the same compound?
A: Its TGI is > 100 µM.

Q: What about the TGI (OVCAR-3 ovarian) of the same compound?
A: Its TGI is 7.1 µM.

Q: What about the TGI (SF-268 CNS) of the same compound?
A: Its TGI is 23.1 µM.

Q: And the TGI (UO-31 renal)?
A: Its TGI is 12.9 µM.

Q: What about the TGI (PC-3 prostate) of the same compound?
A: The TGI was > 100 µM.
